Literature values, collected in patent publication EP4778540A1, “ANTIBODY-DRUG CONJUGATE CONTAINING HETEROCYCLIC COMPOUND HAVING ACTIVITY OF INDUCING DECOMPOSITION OF G12D MUTANT KRAS PROTEIN” (Astellas Pharma Inc., priority 2023, dated 2025).
Counter-ions that a name gives are not always drawn.

Molecular target: T1, mutant RAS G12D protein (Homo sapiens, UniProt P01116, G12D)
T1 construct: endogenous in cells; host or cells: AsPC-1 (human pancreatic cancer line)
Conditions: human G12D mutant KRAS-positive pancreatic cancer line AsPC-1, cited from earlier work; for DC50: DC50 of D10 calculated from a molecular weight in terms of 4 hydrochloride

T1 sequence (P01116 1-188 isoform P01116-2 G12D): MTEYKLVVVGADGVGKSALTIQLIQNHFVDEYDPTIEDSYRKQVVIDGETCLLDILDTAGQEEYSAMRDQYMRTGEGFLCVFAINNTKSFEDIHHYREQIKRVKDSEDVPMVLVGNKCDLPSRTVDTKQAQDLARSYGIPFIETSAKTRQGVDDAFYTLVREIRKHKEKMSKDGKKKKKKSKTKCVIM

SMILES | DC50 [nM] | Dmax [%]
Cc1c(F)cc2[nH]ncc2c1-c1c(C2CC2)cc2c(N3CC4CC3CN4)nc(OC3CCOCC3)nc2c1OCc1ccc(C(=O)N2CCN(Cc3ccc4c(c3)n(C)c(=O)n4C3CCC(=O)NC3=O)CC2C)cc1 [D9, 3-(5-{[(3S)-4-{4-[({(7M)-6-cyclopropyl-4-[(1S,4S)-2,5-diazabicyclo[2.2.1]heptan-2-yl]-7-(6-fluoro-5-methyl-1H-indazol-4-yl)-2-[(oxan-4-yl)oxy]quinazolin-8-yl}oxy)methyl]benzoyl} -3-methylpiperazin-1-yl]methyl}-3-methyl-2-oxo-2,3-dihydro-1H-benzimidazol-1-yl)piperidine-2,6-dione] | 13 | 86
Cc1c(F)cc2[nH]ncc2c1-c1c(C2CC2)cc2c(N3C[C@@H]4C[C@H]3CN4)nc(OC3CCOCC3)nc2c1OCc1ccc(C(=O)N2CCN(Cc3ccc4c(N5CCC(=O)NC5=O)nn(C)c4c3)C[C@@H]2C)cc1 [D10, 1-(6-{[(3S)-4-{4-[({(7M)-6-cyclopropyl-4-[(1S,4S)-2,5-diazabicyclo[2.2.1]heptan-2-yl]-7-(6-fluoro-5-methyl-1H-indazol-4-yl)-2-[(oxan-4-yl)oxy]quinazolin-8-yl}oxy)methyl]benzoyl}-3-methylpiperazin-1-yl]methyl}-1-methyl-1H-indazol-3-yl)-1,3-diazinane-2,4-dione n-hydrochloride] | 71 | 86
CO[C@@H](C)COc1nc(N2C[C@@H]3C[C@H]2CN3)c2cc(C3CC3)c(-c3c(C)c(F)cc4[nH]ncc34)c(OCc3ccc(C(=O)N4CCN(Cc5ccc6c(c5)n(C)c(=O)n6C5CCC(=O)NC5=O)C[C@@H]4C)cc3)c2n1 (stereo partly drawn) [D11, 3-(5-{[(3S)-4-{4-[({(7M)-6-cyclopropyl-4-[(1S,4S)-2,5-diazabicyclo[2.2.1]heptan-2-yl]-7-(6-fluoro-5-methyl-1H-indazol-4-yl)-2-[(2S)-2-methoxypropoxy]quinazolin-8-yl}oxy)methyl]benzoyl}-3-methylpiperazin-1-yl]methyl}-3-methyl-2-oxo-2,3-dihydro-1H-benzimidazol-1-yl)piperidine-2,6-dione] | 8 | 86
COC(C)COc1nc(N(C)C2CCNC2)c2cc(C3CC3)c(-c3c(C)c(F)cc4[nH]ncc34)c(OCc3ccc(-c4cn(C(C(=O)N5CC(O)CC5C(=O)NC(CO)c5ccc(-c6scnc6C)cc5)C(C)C)nn4)cc3)c2n1 [D7, (4R)-1-[(2S)-2-{4-[4-({[(7M)-6-cyclopropyl-7-(6-fluoro-5-methyl-1H-indazol-4-yl)-2-[(2S)-2-methoxypropoxy]-4-{methyl[(3S)-pyrrolidin-3-yl]amino}quinazolin-8-yl]oxy}methyl)phenyl]-1H-1,2,3-triazol-1-yl}-3-methylbutanoyl]-4-hydroxy-N-{(1R)-2-hydroxy-1-[4-(4-methyl-1,3-thiazol-5-yl)phenyl]ethyl}-L-prolinamide] | 10 | 
